Test results: patent US12673039B2, “Methods of inducing autophagy using coumarin derivatives and related compounds” (Buck Institute for Research on Aging, priority 2019, dated 2026)

Assays:
[1] = tested on: C. elegans; test: C. elegans lifespan assays; type: in vivo
Text: FIG. 21, panels A-F: AIC106 prevents neuronal loss and proteotoxicity in strains expressing human neurotoxic proteins. Panel A) Dopaminergic neuronal loss in day-5 UA44 worms was quantified by scoring percentage of worms with intact 4-CEP neurons in AIC106 and DMSO-control treatment. [N=3 independent experiments (mean±SD). ***p<0.001, by one-way ANOVA with Tukey's multiple comparisons test]. Motor function in (panel B) day-7 NL5901 and (panel C) day-5 CL2006 worms were quantified by scoring number of thrashes for an individual worm over the period of 30 seconds (dots) in AIC106 and DMSO-control treatment. [N=3 independent experiments (mean±SD). **p<0.01, ***p<0.001 and ****p<0.0001, by one-way ANOVA with Tukey's multiple comparisons test]. Panel D) Motor function in temperature sensitive (enhanced paralysis at 25° C.) CL4176 worms was determined by scoring percent of worms paralyzed in AIC106 and DMSO-control treatment. [N=3 independent experiments (mean±SD). **p<0.01, by one-way ANOVA with Tukey's multiple comparisons test]. Panel E) Lifespan analysis of CL6049 worms exposed to AIC106 and DMSO-control. [N=2 independent experiments, Treatment (median survival in days, P value compared to DMSO-control): DMSO-control (12), AIC106 10 μM (15, p<0.01), 20 μM (15, p<0.0001) and 50 μM (17, p<0.0001). P-value calculated by Logrank test]. Panel F) Effect of AIC106 on polyQ40 aggregation was determined by scoring number of polyQ40-YFP fluorescent puncta in an individual AM141 worm treated with AIC106 and DMSO-control. [N=3 independent experiments (mean±SD). *p<0.05 and ***p<0.001, by one-way ANOVA with Tukey's multiple comparisons test].
FIG. 27, panels A-C: AIC106 induces mitophagy and increases lifespan. Panel A) Relative fold change in mRNA of key mitophagy genes including dct-1, pink-1 and pdr-1 was quantified by qRT-PCR after DMSO-control and AIC106 24 hours treatment in young adult N2 and hlh-30(tm1978) mutants. [N=3 independent experiments (mean±SD). **p<0.01 and ****p<0.0001, by two-way ANOVA with Sidak's multiple comparisons test]. Short exposure (1 week) of AIC106 increased survival of (panel B) wild type N2: DMSO-control (median-12 days), AIC106 50 μM (median-15 days, p<0.0001) and (panel C) mitophagy deficient pdr-1(tm598): mutant DMSO-control (median-15 days), AIC106 50 μM (median −17 days, p<0.001)]. [N=3 independent experiments, P value compared to respective DMSO-control and calculated by Logrank test).
FIG. 28, panels A-B: AIC106 prevents neuronal loss and proteotoxicity in strains expressing human neurotoxic proteins. Panel A) Motor function in day-7 NL5901 were quantified by scoring number of thrashes for an individual worm over the period of 30 seconds (dots) in AIC106 and DMSO-control treatment. [N=3 independent experiments (mean±SD). ***p<0.001 and ****p<0.0001, by one-way ANOVA with Tukey's multiple comparisons test]. Panel B) Lifespan analysis of CL6049 worms exposed to AIC106 and DMSO-control. [N=2 independent experiments, Treatment (median survival in days, P value compared to DMSO-control): DMSO-control RNAi (18), CL6049-AIC106 control RNAi (21, p<0.0001), CL6049-AIC106 hlh-30 RNAi (17, p<0.0001) and 50 μM (17, p<0.0001). P-value calculated by Logrank test].
Lifespan assays for CL6049 and pdr-1(tm598) strains was performed after treating day-1 adult worms with DMSO or AIC106. A synchronized 35-40 young day-1 adult worms were transferred to each 35 mm compound-treated plates supplemented with FuDR containing control DMSO or AIC106 and kept at 20° C. Worms were scored as alive, dead, or lost every alternate day. […] Worms that died from causes other than aging, such as sticking to the plate walls, internal hatching of eggs (bagging), or gonadal extrusion were censored as lost. Worms were transferred to fresh-drugged plates every 3-5 days. All lifespan experiments were performed at 20° C.

[2] = tested on: TFEB; test: TFEB activation screen, % activation/control at 24 and 48 hrs (Table 1); type: cell-based, human
Description: FIG. 25, panels A-B::AIC106 identified as a lead compound in a TFEB-transcription based screen. Panel A) Rat Neuronal N27 cells were transfected with a vector construct driving expression of secreted-Gaussia luciferase (Sec-Gaussia) in control of 2 kb human TFEB promoter. Next day, cells were seeded into 96-well cell culture plate and exposed to compounds (30 μM) from natural product library (NPL-640) or DMSO-control. After 24 and 48 hours of compound treatment supernatant from the cells was collected and TFEB promoter activity determined by quantifying luciferase activity. Panel B) Effects of AIC106 treatment on HLH-30 expression after 24 hours treatment were determined by immunoblot against GFP in young adult stage of GFP-tagged HLH-30 strain (MAH235) following total protein extraction.
It was discovered that small structural alterations in the C1 compound can have significant effects on the degree of TFEB activation (see, e.g., FIG. 17) the screening systems described herein identified a number of structures related to C1 that similarly induce TFEB.
In vitro drug screening studies. […] We utilized for these studies a 3000 compound natural product derivative library (Timtec, Newark, DE) in […] transfected with a sensitive TFEB promotor-Gaussian luciferase construct. […] C1 is a coumarin-related compound, part of a family of natural benzopyrones found in many edible plants.
To identify novel transcriptional inducers of TFEB, we transfected rat neuronal N27 cells with a vector driving expression of secreted-luciferase under control of the human TFEB promoter. […] AIC106 belongs to a family of coumarin compounds containing an active benzopyrone ring.

[3] = tested on: parkin mutant PD mouse model; test: Age-related parkin mutant PD mouse model, C1 in the feed; type: in vivo; details: oral in the feed
Text: Relative TFEB expression as assessed by qPCR from mRNA extracted from the SNpc of parkin mutant versus WT littermates administered C1 in the feed versus normal chow; UA was included as a positive control.
Stereological DAergic SNpc counts and motor behavior as assessed by rearing frequency in parkin mutant versus WT littermates administered C1 in the feed versus normal chow.

In the case of O=c1oc2c3c4c(cc2c2c1CCC2)CCCN4CCC3 [C1, 2,3,6,7,10,11-Hexahydro-1H,5H-cyclopenta(3,4)(1)benzopyrano(6,7,8-ij)quinolizin-12(9H)-one], the median survival ([1]; CL6049, 50 μM as listed in FIG. 28 panel B legend) was 17 days, the median survival ([1]; CL6049, control RNAi, DMSO-control RNAi 18) was 21 days and the median survival ([1]; CL6049, hlh-30 RNAi) was 17 days. For the same molecule, the median survival ([1]; CL6049 worms, 10 μM, DMSO-control 12) was 15 days, the median survival ([1]; CL6049 worms, 20 μM, DMSO-control 12) was 15 days and the median survival ([1]; CL6049 worms, 50 μM, DMSO-control 12) was 17 days. The “human TDP-43 toxicity (survival)” value ([1]; CL6049 worms, dose dependent) was “protected against human TDP-43 toxicity”, the lifespan ([1]; short treatment (1 week post-development)) was “significant increase in lifespan of both wild type N2 and pdr-1 mutant” and the “% activation/Control 24 hrs” value ([2]; 24 hrs) was 350.83%. For the same molecule, the “% activation/Control 48 hrs” value ([2]; 48 hrs) was 413.96%, the “motor deficits (rearing frequency)” value ([3]; 6 month period (FIG. 16)) was “prevents both neuronal cell loss and motor deficits” and the “neuronal cell loss (DAergic SNpc counts)” value ([3]; 6 month period (FIG. 16)) was “prevents both neuronal cell loss and motor deficits”. The “TFEB expression in SNpc” value ([3]; 6 month period from 14-16 mo. (FIG. 15)) was “TFEB target engagement”.
